From the NIST ThermoML archive (doi:10.1016/j.jct.2010.01.014)
± gives the expanded uncertainty stated by the source.

Settings: Crystal, Calculated from knudsen effusion weight loss

O=C1c2ccccc2-c2ccccc21 [9(9H)-fluorenone]
Settings	vapor or sublimation pressure [kPa]
300.8 K	1.21e-05 ± 4.9e-06
303.6 K	1.69e-05 ± 6.8e-06
307.9 K	2.79e-05 ± 1.1e-05
309.8 K	3.65e-05 ± 1.5e-05
313 K	5.1e-05 ± 2.1e-05
313.1 K	5.09e-05 ± 2.1e-05
315.1 K	6.16e-05 ± 2.5e-05
323 K	0.000139 ± 5.6e-05
323.1 K	0.000143 ± 5.8e-05
324.5 K	0.000159 ± 6.4e-05
324.7 K	0.000167 ± 6.8e-05
328.4 K	0.000246 ± 9.9e-05
328.6 K	0.000245 ± 9.9e-05
330.9 K	0.000311 ± 0.00013
331.1 K	0.000319 ± 0.00013
331.9 K	0.000345 ± 0.00014
336.5 K	0.000528 ± 0.00021
336.6 K	0.00054 ± 0.00022
337.8 K	0.000596 ± 0.00024
337.9 K	0.000599 ± 0.00024
342.7 K	0.000937 ± 0.00038
342.8 K	0.000952 ± 0.00038

c1ccc2c(c1)Oc1ccccc1S2 [phenoxathiin]
Settings	vapor or sublimation pressure [kPa]
304.2 K	8.61e-05 ± 1e-05
308.7 K	0.000143 ± 1.7e-05
311.4 K	0.000209 ± 2.3e-05
311.5 K	0.000207 ± 2.6e-05
311.9 K	0.000217 ± 2.4e-05
318.2 K	0.000453 ± 5.2e-05
323 K	0.000771 ± 8.7e-05
324.5 K	0.000927 ± 0.00011

c1ccc2c(c1)Nc1ccccc1O2 [phenoxazine]
Settings	vapor or sublimation pressure [kPa]
329.7 K	2.81e-05 ± 3.5e-06
336.7 K	5.94e-05 ± 6.8e-06
340.9 K	0.000102 ± 1.2e-05
344.9 K	0.000164 ± 1.9e-05
345.1 K	0.000164 ± 1.8e-05
346.9 K	0.000196 ± 2.2e-05
348.2 K	0.00022 ± 2.5e-05
352.9 K	0.000345 ± 3.9e-05
353.1 K	0.000363 ± 4e-05
356.7 K	0.000483 ± 5.5e-05
360.9 K	0.000748 ± 8.5e-05
364.5 K	0.00107 ± 0.00014

OC1c2ccccc2-c2ccccc21 [9H-fluoren-9-ol]
Settings	vapor or sublimation pressure [kPa]
326.1 K	2.1e-05 ± 2.4e-06
327.5 K	2.44e-05 ± 2.8e-06
329.8 K	3.15e-05 ± 3.6e-06
331.3 K	3.74e-05 ± 4.3e-06
334.9 K	5.12e-05 ± 6.1e-06
340.9 K	0.000101 ± 1.1e-05
342.6 K	0.000115 ± 1.3e-05
343.6 K	0.000123 ± 1.4e-05
344.7 K	0.000144 ± 1.6e-05
346.1 K	0.000159 ± 1.8e-05
347.4 K	0.000186 ± 2.2e-05
351.2 K	0.000276 ± 3.1e-05
355.1 K	0.000402 ± 4.5e-05
358.7 K	0.00056 ± 6.3e-05
361.9 K	0.00074 ± 8.3e-05
366.1 K	0.00103 ± 0.00013

O=C1c2ccccc2C(=O)c2ccccc21 [9,10(9H,10H)-anthracenedione]
Settings	vapor or sublimation pressure [kPa]
346 K	4.49e-06 ± 6.7e-07
359.9 K	2.09e-05 ± 2.3e-06
360.9 K	2.2e-05 ± 2.4e-06
362.7 K	2.52e-05 ± 2.9e-06
367.4 K	4.1e-05 ± 4.6e-06
369.9 K	5.42e-05 ± 6.5e-06
377.6 K	0.000119 ± 1.4e-05
379.2 K	0.000144 ± 1.6e-05
380.1 K	0.000149 ± 1.6e-05
385.4 K	0.000267 ± 3e-05
385.8 K	0.000263 ± 3.3e-05
386.8 K	0.000305 ± 3.6e-05
392.7 K	0.000493 ± 5.4e-05
392.8 K	0.000494 ± 5.5e-05
393.4 K	0.000519 ± 5.8e-05
399.2 K	0.000872 ± 0.0001
399.9 K	0.000948 ± 0.00011

c1ccc2c(c1)[nH]c1cnccc12 [9H-pyrido[3,4-b]indole]
Settings	vapor or sublimation pressure [kPa]
352.8 K	5.7e-06 ± 7.4e-07
363.8 K	1.74e-05 ± 1.9e-06
367.9 K	2.56e-05 ± 2.9e-06
368.1 K	2.72e-05 ± 3.1e-06
370.3 K	3.37e-05 ± 3.9e-06
371.4 K	4.16e-05 ± 4.7e-06
371.5 K	4.16e-05 ± 4.7e-06
374.1 K	5.03e-05 ± 5.7e-06
374.4 K	5.45e-05 ± 6.1e-06
378.2 K	7.53e-05 ± 8.4e-06
381.8 K	0.000103 ± 1.2e-05
382 K	0.000107 ± 1.2e-05
382.2 K	0.000108 ± 1.2e-05
385.4 K	0.000141 ± 1.9e-05
385.9 K	0.000155 ± 2e-05
389.2 K	0.000218 ± 2.4e-05
389.4 K	0.000229 ± 2.6e-05

ON=C1c2ccccc2-c2ccccc21 [9-oximinofluorene]
Settings	vapor or sublimation pressure [kPa]
374.5 K	0.000175 ± 1.9e-05
376.6 K	0.000198 ± 2.2e-05
378.5 K	0.000231 ± 2.5e-05
382.6 K	0.000302 ± 3.4e-05
383.2 K	0.000317 ± 3.5e-05
386.2 K	0.000385 ± 4.2e-05
387.9 K	0.000428 ± 4.6e-05
389.9 K	0.000474 ± 5.2e-05
393.8 K	0.000613 ± 6.7e-05
395.2 K	0.000671 ± 7.3e-05
398.6 K	0.000816 ± 8.8e-05
